IC50 data for one compound are collected here from patent publication US5262435A, “Cholesterol lowering compounds” (Merck & Co., Inc., priority 1992, dated 1993).

SMILES strings stand for the structures. pIC50: −log10 of the molar value.

The target of the assay is T1, squalene synthetase (Rattus norvegicus, UniProt Q02769).
T1 construct: from tissue; host or cells: rat liver microsomes (lovastatin-fed male Charles River CD rats)
T1 sequence (Q02769 1-416): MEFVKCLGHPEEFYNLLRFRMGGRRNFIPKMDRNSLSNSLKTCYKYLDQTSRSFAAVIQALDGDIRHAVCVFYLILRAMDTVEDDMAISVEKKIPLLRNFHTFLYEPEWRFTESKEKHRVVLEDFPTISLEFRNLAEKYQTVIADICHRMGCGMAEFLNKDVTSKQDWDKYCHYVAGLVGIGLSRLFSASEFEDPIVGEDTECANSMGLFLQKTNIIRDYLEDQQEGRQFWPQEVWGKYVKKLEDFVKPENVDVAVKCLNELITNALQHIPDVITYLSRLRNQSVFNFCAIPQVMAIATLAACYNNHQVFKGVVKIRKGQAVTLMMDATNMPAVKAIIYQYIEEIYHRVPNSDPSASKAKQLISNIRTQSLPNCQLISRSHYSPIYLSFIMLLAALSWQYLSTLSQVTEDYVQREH
Nature of the assay: Squalene synthetase assay (rat liver microsomes, [4-14C]farnesyl-pyrophosphate). Format: biochemical. The note with it: rat liver microsomal protein, 30° C., 20 minutes; read-out: IC50 squalene synthetase inhibition. As for the experimental part:
The intrinsic squalene synthetase inhibitory activity of representative compounds of this invention was measured by the standard in vitro protocol described below:
Male, Charles River CD rats (120 to 150 g) were fed a diet containing 0.1% lovastatin for 4 days. The livers from these rats were homogenized in 5 volumes (ml/g) of ice cold 50 Mm HEPES (4-(2-hydroxyethyl)-1-piperazine-ethanesulfonic acid), 5 mM EDTA(ethylenediaminetetraacetic acid) pH 7.5 with a Potter-Elvehjem type tissue grinder. The homogenate was centrifuged twice at 20,000×g for 15 minutes at 4,C, discarding the pellet each time. The supernatant was then centrifuged at 100,000×g for 1 hour at 4° C. The resulting microsomal pellet was resuspended in a volume of the above homogenizing buffer equal to one-fifth the volume of the original homogenate. This microsomal preparation has a protein concentration of about 7 mg/ml. The microsomal suspensions were stored in aliquots at -70° C. Squalene synthetase activity in these aliquots is stable for at least several months. […]
This assay mix was degassed under a vacuum and flushed with N2. […] Ten ml of scintillation fluid was added to the heptane solution and radioactivity was determined by liquid scintillation counting. […]
IC50 values were determined by plotting the log of the concentration of the test compound versus the percentage inhibition. […]
For orientation: Liver microsomes are vesicles of endoplasmic reticulum, rich in cytochrome P450 enzymes.

As for `C=C(CC[C@@]12C[C@@H](OC(=O)/C=C/C(C)CC(C)CC)[C@@](C(=O)O)(O1)[C@](O)(C(=O)O)[C@@H](C(=O)O)O2)C(OC(C)=O)C(C)Cc1ccccc1` (stereo partly shown) [Compound A], the pIC50 – broadly, the negative decadic logarithm of the IC50, by convention in mol/L – is 9.02.
